Source: US9168268B1, “Saponins and chromans derivatives mixture compositions against leishmaniasis, Trypanosomiasis americana, malaria, Trypanosomiasis africana and Fasciola hepatica” (UNIVERSIDAD DE ANTIOQUIA, priority 2013, dated 2015)

System: L. amazonensis
Assay: In vivo therapeutic response of hamsters experimentally infected with L. amazonensis (hamster model for cutaneous leishmaniasis)
Details: for cure rate: hamster model for cutaneous leishmaniasis, L. amazonensis, outcome at end of study (3 months after the end of treatment); for lesion size compared between treatment groups: hamsters infected with L. amazonensis, from the second month after the end of treatment to the end of the study; for activity against Leishmania parasites: leishmanicidal activity as shown in FIG. 4 and FIG. 5
Procedure: The formulation has been tested in vitro and in vivo for their leishmaninicidal activity.
A. TC1 (1.13 mg), B TC1 (4.01%), C: TC2 (1.35 mg), D: TC2 (3.0%), E: TC3 (1.72 mg), F: TC4 (1.25 mg), G: TC4 (4.03%), H: TC18 (3.0%), I: Mixture 1A, 2A, 3A (4.14%), J: Mixture 1A, 2A, 3A (7.77%), K: meglumina antimoniate (1209 mg), L: Vehicle (100 μl) and M: Vehicle (40 mg).
A. TC1 (1.13 mg), B TC1 (4.01%), C: TC2 (1.35 mg), D: TC2 (3.0%), E: TC3 (1.72 mg), F: TC4 (1.25 mg), G: TC4 (4.03%), H: TC18 (3.0%), I: Mixture 1A, 2A, 3A (4.14%), J: Mixture 1A, 2A, 3A (7.77%), K: meglumina antimoniate (1209 mg), L: Vehicle (100 μl) and M: Vehicle (40 mg). BoT: Beginning of Treatment; EoT: End of treatment. 1mAEoT: 1 month after the end of treatment, 2mAEoT: 2 months after the end of treatment, 3mAEoT: 3 months after the end of treatment. […] The efficacy may be increased using other dose or therapeutic schemes.

SMILES | cure rate | lesion size compared between treatment groups | activity against Leishmania parasites
O=C(N/N=C1\CCSc2ccccc21)c1ccccc1 [TC1, Benzoic acid, 2-(2,3-dihydro-4H-1-benzothiopyran-4-ylidene)hydrazide] | 77% | lowest lesion size | exhibited activity
O=C(N/N=C1\CCSc2ccccc21)c1ccncc1 [TC2, 4-Pyridinecarboxylic acid, 2-(2,3-dihydro-4H-1-benzothiopyran-4-ylidene)hydrazid] | – | lowest lesion size | exhibited activity
O=C1CCS(=O)(=O)c2ccccc21 [TC18, Thiochroman-4-one, 1,1-dioxide] | 63% | – | exhibited activity
